Laboratory results as given in patent publication US20250242040A1, “ALBUMIN CONJUGATE, PREPARATION METHOD THEREFOR AND USE THEREOF” (Suzhou KangDeRui Pharmaceutical, Ltd., priority 2023, published 2025).
Non-standard residues stand in square brackets, D forms with d. Residues, ends and D or L forms follow the SMILES beside them. Dolaproine = CO[C@@H]([C@@H]1CCCN1)[C@@H](C)C(=O)O; Dil = CC[C@H](C)[C@H](NC)[C@@H](CC(=O)O)OC; NMeV = CN[C@H](C(=O)O)C(C)C

System: A-549 cells
Assay: Apoptosis assay of A-549 cells by flow cytometry (in vitro cytotoxic activity)
Type: cell-based
Method: The apoptosis of A-549 cells was analyzed by flow cytometry (FIG. 2).

In the case of `CC[C@H](C)[C@@H]([C@@H](CC(=O)N1CCC[C@H]1[C@H](OC)[C@@H](C)C(=O)N[C@@H](Cc1ccccc1)C(=O)O)OC)N(C)C(=O)[C@@H](NC(=O)[C@@H](NC)C(C)C)C(C)C` [MMAF, monomethyl auristatin F] (H-[NMeV]V[Dil][Dolaproine]F-OH), the apoptosis efficiency is reported as 12.3%.
